Results on 2 molecules are retold here after patent publication US20040224020A1, “Oral dosage forms with therapeutically active agents in controlled release cores and immediate release gelatin capsule coats” (priority 2002, published 2004).

The text on data set [1]:
Where the controlled release core is in the form of a liquid, the amount and type of solvent used with SAIB should be optimized so as to obtain a liquid wherein the at least one therapeutically active agent is acceptably soluble.
In order to obtain a soluble liquid fill, the amounts of (i) SAIB, (ii) at least one biocompatible solvent, and (iii) at least one therapeutically active agent is optimized.

A short description of data set [2]: Viscosity of SAIB/solvent compositions, Cannon-Fenske viscometer. The data set is classed as physicochemical. As to conditions: Cannon-Fenske viscometer of size 200 at 30° C.

Consider `CC(C)Cc1ccc(C(C)C(=O)O)cc1` (centres unmarked) [ibuprofen], for which the “ethanol required to achieve solubility with SAIB” value in data set [1] is listed as “approximately 15 % (by weight)”.
As to `CCO` [ethanol], the “viscosity (centipoises value)” value in data set [2] came out at 1.3 centipoises.
